Data reported in patent US10976312B2, “Compositions and methods for capture of cellular targets of bioactive agents” (Promega Corporation, priority 2012, dated 2021).

What was measured:
Type in all cases: cell-based
[1] = tested on: intracellular HDAC activity; assay: Intracellular HDAC activity, non-lytic HDAC-Glo I/II assay, HEK293 and K562 cells (Example 10); conditions: 2 hours treatment, relative to SAHA
Experimental: HEK293 cells were plated in a 96-well plate at 1×10^5 cell/ml in DMEM+10% serum, and 24 hours later, the media was replaced with serum free DMEM media. K562 cells were plated in serum free RPMI 1640 media into wells of a 96-well plate at 2×10^5 cells/ml. Cells were treated with serial dilutions of SAHA or PBI-5040 (SAHA-chloroalkane) for 2 hours and then tested for intracellular HDAC activity using the non-lytic HDAC-Glo™ I/II assay (Promega Corporation) according to manufacturer's instructions. […] The ˜2-fold reduction in SAHA potency due to the chloroalkane modification indicates minimal impact of the chloroalkane on cellular permeability or potency.

[2] = tested on: intracellular HDAC activity; assay: Intracellular HDAC activity, non-lytic HDAC-Glo I/II assay, K562 cells (Example 12); conditions: 2 hours treatment
Experimental: K562 cells were plated in serum free RPMI 1640 media into wells of a 96-well plate at 2×10^5 cells/ml. Cells were then treated with serial dilution of SAHA, PBI-5040 (SAHA-chloroalkane) or PBI 5475 (SAHA-biotin) for 2 hours and then tested for intracellular HDAC activity using the non-lytic HDAC-Glo™ I/II assay (Promega Corporation) according to manufacturer's instructions.

[3] = tested on: HDAC1, HDAC2, HDAC3, HDAC6, HDAC8; assay: Endogenous target pull-down from HEK293 cells, western blot and mass spec (Example 11); conditions: 20 uM conjugate
Experimental: HEK293 cells were plated in 100 mm dishes at 2×10^5 cells/ml. Forty-eight hours post plating, a final concentration of 20 uM SAHA-chloroalkane (PBI-5040) was added to 3 of the dishes (1×10^7 cells/dish), while 3 other dishes were not treated with the conjugated drug (control). Following equilibrium binding for 2 hours, the media was removed, the cells quickly washed with PBS, lysed in a detergent-based lysis buffer for 10 minutes and centrifuged at 3000×g for 1 minute. The cleared lysates were than added to 75 ul of settled paramagnetic HALOTAG beads and incubated with shaking for 15 minutes. Following binding, the unbound fraction was removed, the HALOTAG paramagnetic beads were washed 3× (wash buffer—50 mM HEPES pH7.5, 150 mM NaCl and 0.01% IGEPAL), and the captured targets specifically released from the beads by competition with 400 μM unconjugated SAHA for 60 minutes. The released targets were subjected to mass spec analysis (FIG. 11B) as well as western blot analysis (FIG. 1-A) with anti HDAC1 antibody (ABCAM); anti HDAC2 antibody (ABCAM); anti HDAC6 antibody (Millipore); anti HDAC3 antibody (Thermo Fisher) and anti HDAC8 antibody (Rockland/Promega).

[4] = tested on: HDAC1, HDAC2, HDAC3, HDAC6, HDAC8; assay: Endogenous target pull-down from K562 cells, western blot (Example 13); conditions: 20 uM conjugate
Experimental: K562 cells were plated in 150 mm dishes at 5×10^7 cells/dish. A final concentration of 20 uM SAHA chloroalkane (PBI-5040) or PBI-5475 (SAHA-biotin) was added to 2 dishes of cells while 2 other dishes of cells were not treated with the conjugated drug (control). Following equilibrium binding of 2 hours, the media was removed, the cells quickly washed with PBS and lysed in detergent-based lysis buffer for 10 minutes and centrifuged at 3000×g for 1 minute. The cleared lysates treated with PBI-5040, as well as the cleared lysates of the control cells, were added to 75 ul of settled paramagnetic HALTOG beads. The cleared lysates of the cells treated with PBI-5475, as well as the cleared lysate of the control cells, were added to 75 ul of settled paramagnetic Streptavidin beads (GE). Following 15 minutes of binding, the unbound fraction was removed, beads were washed 3×, and the captured targets specifically released from the beads by competition with 400 μM unconjugated SAHA for 60 minutes. The released targets were subjected to western blot analysis (FIG. 13) with anti HDAC1 antibody (ABCAM); anti HDAC2 antibody (ABCAM); anti HDAC6 antibody (Millipore); anti HDAC3 antibody (Thermo Fisher) and anti HDAC8 antibody (Rockland/Promega).

NANOLUC-DHFR fusion [5] = molecular target: T1, NANOLUC-DHFR fusion (Homo sapiens, UniProt P00374); assay: Binding affinity to DHFR in live cells using BRET; conditions: HEK293 live cells, 1 μM PBI-4890 tracer, 2 h
T1 construct: expressed in transfected cells; host or cells: HEK293
T1 sequence (P00374 1-187): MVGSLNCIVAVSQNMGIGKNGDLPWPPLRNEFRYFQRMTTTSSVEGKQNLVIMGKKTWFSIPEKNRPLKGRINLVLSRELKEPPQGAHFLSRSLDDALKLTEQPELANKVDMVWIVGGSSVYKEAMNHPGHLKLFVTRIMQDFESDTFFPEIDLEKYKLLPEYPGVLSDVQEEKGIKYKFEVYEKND
Experimental: Binding affinity to DHFR in live cells was tested using BRET. HEK293 cells in wells of a 96-well plate were transfected using PEI with plasmid DNA encoding a NANOLUC-DHFR fusion. The DNA was diluted 1:50 with a promoterless carrier DNA plasmid (PSI) to a final concentration of 80 ng total DNA per well. Twenty-four hours post-transfection, cells were serum starved for additional 24 hours and then treated with serially diluted PBI-4848 or PBI-5015 in the presence of 1 μM PBI-4890 (TOM-methotrexate derivative). After two hours of equilibrium binding, furimazine (a coelenterazine derivative; Promega Corp.) was added to a final concentration of 20 μM, and BRET measured on a Varioskan luminometer.

NANOLUC-DHFR fusion [6] = molecular target: T1, NANOLUC-DHFR fusion; assay: Pull-down of NANOLUC:DHFR from live HEK293 cells onto HALOTAG protein beads; conditions: 10 μM conjugate, release with 150 μM methotrexate
Experimental: The DNA was diluted 1:50 with a promoterless carrier DNA plasmid (PSI) to a final concentration of 80 ng total DNA per well. Twenty-four hours post-transfection, cells were serum starved for additional 24 h and then incubated with 10 μM PBI-4848 or PBI-5015 while control cells were not treated with the conjugated drug. Following equilibration binding of 2 h, the media was removed, and the cells quickly washed with PBS and lysed in detergent-based lysis buffer for 10 min. Cell lysates were then transferred to wells of a 96-well plate containing 0.5 μl settled paramagnetic HALOTAG protein beads and incubated with shaking for 45 min. Following binding, the unbound fraction was removed, the HALOTAG protein paramagnetic beads washed, 150 μM unconjugated methotrexate added, and the captured NANOLUC:DHFR specifically released from the beads by competition with the unconjugated methotrexate for 60 min. The released NANOLUC:DHFR (+PBI5015 or +PBI 4848) and control samples were detected by NANOGLO luciferase detection reagent.

DHFR = molecular target: T2, DHFR (Homo sapiens, UniProt P00374); assay: Endogenous target pull-down from HEK293 cells, western blot and mass spec (Example 7); conditions: 10 uM conjugate, listed as Methotrexate-CA
T2 construct: isolate, e.g., pull-down, endogenous targets from cells; endogenous in cells; host or cells: HEK293
T2 sequence (P00374 1-187): T1 sequence (P00374 1-187)
Experimental: HEK293 cells were plated into wells of a 6-well plate (2.5×10^5 cells/well). 48 hours post plating, a final concentration of 10 uM of Methotrexate chloroalkane (PBI-5015) was added to 2 wells while control cells were not treated with the drug conjugate. Following equilibrium binding for 2 h, the media was removed, and the cells quickly washed with PBS and lysed in detergent-based lysis buffer for 10 min. Cell lysates were then transferred to an Eppendorf® tube containing 12.5 ul of settled paramagnetic HALOTAG protein beads and incubated with shaking for 15 min. Following binding, the unbound fraction was removed, the HALOTAG paramagnetic beads washed 3×, and the captured targets specifically released from the beads by competition with 150 μM unconjugated methotrexate for 60 mins. The released targets were subjected to mass spec analysis as well as western blot analysis using an anti-DHFR antibody (Sigma).

Row | Compound | reduction in SAHA potency due to the chloroalkane modification [1] | reduction in potency relative to SAHA [2] | pull-down of endogenous SAHA targets (HDACs) [3] | pull-down of endogenous SAHA targets (HDACs) ([3]; listed as SAHA-CA) | pull-down of endogenous SAHA targets (HDACs) ([4]; listed as SAHA-CA) | pull-down of endogenous SAHA targets (HDACs) ([4]; listed as SAHA-chloroalkane) | affinity to DHFR (dose-response BRET curves) (NANOLUC-DHFR fusion [5]) | pull-down of Nluc:DHFR fusion (NANOLUC-DHFR fusion [6]) | pull-down of endogenous DHFR (DHFR)
1 | O=C(CCCCCCC(=O)Nc1ccc(CNC(=O)OCCOCCOCCOC(=O)NCCOCCOCCCCCCCl)cc1)NO [PBI-5040] | ~2 fold | ~2 fold | all known targets of SAHA, including low affinity target (HDAC8) and low abundance target (HDAC3), can be specifically pull down | specific pull down of all known targets | specific pull down of all known targets of SAHA | all known targets of SAHA, including a low affinity target (HDAC8) and a low abundance target (HDAC3), were specifically pulled down | – | – | –
2 | CN(Cc1cnc2nc(N)nc(N)c2n1)c1ccc(C(=O)NC(CCC(=O)NCCOCCOCCCCCCCl)C(=O)O)cc1 (stereo not shown) [PBI-4848] | – | – | – | – | – | – | higher affinity to DHFR | – | –
3 | CN(Cc1cnc2nc(N)nc(N)c2n1)c1ccc(C(=O)NC(CCC(=O)NCCCCCNC(=O)OCCOCCOCCOC(=O)NCCOCCOCCCCCCCl)C(=O)O)cc1 (stereo not shown) [PBI-5015] | – | – | – | – | – | – | lower affinity to DHFR | efficiently pulled down the Nluc:DHFR fusion | specific pull down of DHFR
